From patent US20170055529A1, “BROAD SPECTRUM WEED CONTROL IN FLOODED RICE BY IN-WATER APPLICATION OF AUXIN HERBICIDES” (priority 2015, published 2017)
Where two headings read alike, the source gives them in different places.

Legend:
Type in all cases: in vivo
[1] = system: CYPDI = Cyperus difformis (small-flower flatsedge); assay: Greenhouse in-water herbicidal activity (large pots); conditions: Cyperus difformis, 744 h, read-out: Percent (%) Visual Injury Ratings - 31 DAA, CYPDI
Experimental: (§1) Weed seeds or nutlets of the desired test plant species were planted in puddled soil (mud) prepared by mixing shredded topsoil and deionized (DI) water in a 1:1 ratio in a standard cement mixer. […] Osmocote® (17:6:10 N:P:K; 0.5 teaspoon) was added to the bottom of a container. The container is a high-density polyethylene (HDPE) round container (4.163 L (1.1 gallon), 15 cm high×20.55 cm diameter; for treatment purposes, the surface area is calculated as 331 cm^2 with 1 hectare equivalent to 10^8 cm^2). The mud mixture (2,750 mL) was added to the container filling it half full. Stakes were placed horizontally in each container to create separate areas for which to plant each different plant species. Water was added on a regular basis to maintain the paddy flood, and supplemental lighting was provided with overhead metal halide 1000-Watt lamps as necessary.
(§2) Once the plants had reached the proper size (the growth stage of the various species ranged from 2 to 4 leaves), the containers were flooded with city water to a depth of 3 cm submerging the plants 80-100%. The outside of each container was measured and marked at a 3-cm line with a black permanent marker to eliminate water level variability during the trial period. Water was added daily to maintain this water depth. Triclopyr triethylammonium (as Garlon® 3 A, 360 g ae/L); triclopyr butoxyethyl ester (as Garlon® 4, 480 g ae/L); fluroxypyr methylheptyl ester (meptyl or MHE, as Starane® Ultra, 333 g ae/L); fluroxypyr acid (850 grams acid equivalent per kilogram (g ae/kg)); 2,4-dichlorophenoxyacetic acid dimethylammonium (2,4-D DMA, as Weedar® 64 EC, 456 g ae/L); 2,4-dichlorophenoxyacetic acid 2-ethylhexyl ester (2,4-D 2-EHE, as Agri Star®, 456 g ae/L); clopyralid olamine (as Stinger®, 360 g ae/L); and penoxsulam (as Grasp® SC, 240 g ai/L) were used. Each herbicide treatment for each pot was mixed in water (80 mL) and applied directly into the paddy water at rates adjusted to the surface area. The dry formulations were pre-weighed based on the rate of the active ingredient to be applied on a per unit area basis, placed in 30 mL vials, and capped. Granules were spread onto the top of the water in each pot and dispersed throughout the water. Treatments were replicated 3 times.
(§3) The treated plants and control plants were placed in a greenhouse as described above and water was added as needed to maintain a flood depth of 3 cm. […]

[2] = system: ECHCG = Echinochloa crus-galli (barnyardgrass); assay: as above; conditions: 744 h, read-out: Percent (%) Visual Injury Ratings - 31 DAA, ECHCG
Experimental: as §1, §2, §3

[3] = system: MOOVA = Monochoria vaginalis (monochoria); assay: as above; conditions: Pontederia vaginalis, 744 h, read-out: Percent (%) Visual Injury Ratings - 31 DAA, MOOVA
Experimental: as §1, §2, §3

[4] = system: barnyardgrass (Echinochloa crus-galli), small-flower flatsedge (Cyperus difformis), Japanese bulrush (Schoenoplectus juncoides) and monochoria (Monochoria …); assay: In-water application, weed efficacy (summary statement); conditions: application rate of about 35 to about 280 g ae/ha
[5] = system: rice; assay: In-water application, crop safety (summary statement)
[6] = system: ORYSP = Oryza sativa (transplanted paddy rice); assay: Greenhouse in-water application (large pots), crop injury
Experimental: as §1, §2, §3

[7] = system: CYDPI = Cyperus difformis (small-flower flatsedge); assay: Greenhouse in-water herbicidal activity (small pots); conditions: 35 g ae/ha (as headed) in-water
Text: (§4) Weed seeds of the desired test plant species were planted in puddled soil (mud) prepared by mixing a non-sterilized mineral soil (approximately 50 percent silt, 26 percent clay, and 24 percent sand, with a pH of about 7.6 and an organic matter content of about 2.9 percent) and water at a 1:1 volumetric ratio. The prepared mud was dispensed in 365 milliliter (mL) aliquots into 16-ounce (oz.) non-perforated plastic pots with a surface area of 86.59 square centimeters (cm^2) leaving a headspace of 3 centimeters (cm) in each pot. Mud was allowed to dry overnight prior to planting or transplanting. Rice seeds were planted in Sun Gro® MetroMix® 360 planting mixture, which typically has a pH of 6.0 to 6.8 and an organic matter content of about 30 percent, in plastic plug trays. Seedlings at the second or third leaf stage of growth were transplanted into 840 mL of mud contained in 32-oz. non-perforated plastic pots with a surface area of 86.59 cm^2 four days prior to herbicide application. The paddy was created by filling the headspace of the pots with 2.5 to 3 cm of water. When required to ensure good germination and healthy plants, a fungicide treatment and/or other chemical or physical treatment was applied. The plants were grown for 4-22 days (d) in a greenhouse with an approximate 14-hour (h) photoperiod which was maintained at about 29° C. during the day and 26° C. during the night. Nutrients were added as Osmocote® (19:6:12, Nitrogen:Phosphorus:Potassium (N:P:K)+minor nutrients) at 2 g per 16 oz. pot and 4 g per 32 oz. pot. Water was added on a regular basis to maintain the paddy flood, and supplemental lighting was provided with overhead metal halide 1000-Watt lamps as necessary. The plants were used for testing when they reached the second or third true leaf stage.
(§5) Triclopyr triethylammonium (as Grandstand® R, 359.5 grams acid equivalent per liter (g ae/L)); fluroxypyr methylheptyl ester (meptyl or MHE, as Starane™, 179.8 g ae/L); 2,4-dichlorophenoxyacetic acid dimethylammonium (2,4-D DMA, as Weedar® 64, 455.4 g ae/L); and penoxsulam (as Grasp® SC, 239.7 grams active ingredient per liter (g ai/L) were used. Measured amounts of formulated compounds were placed in individual 120 mL glass vials and were dissolved in 40 mL of an aqueous mixture containing 1.25% volume per volume (v/v) Agri-Dex® crop oil concentrate. Generally, multiple concentrations were tested utilizing the same stock solution. Applications were made by injecting an appropriate amount of the application solution into the aqueous layer of the paddy. Control plants were treated in the same manner with the solvent blank.
(§6) The treated plants and control plants were placed in a greenhouse as described above and water was added as needed to maintain a paddy flood. After approximately 3 weeks the condition of the test plants, compared with that of the untreated plants, was determined visually and scored on a scale of 0 to 100 percent where 0 corresponds to no injury or growth reduction and 100 corresponds to complete kill.

[8] = system: ECHCG = Echinochloa crus-galli (barnyardgrass); assay: as above; conditions: 35 g ae/ha (as headed) in-water
Text: as §4, §5, §6

[9] = system: MOOVA = Monochoria vaginalis (monochoria); assay: as above; conditions: 35 g ae/ha (as headed) in-water
Text: as §4, §5, §6

[10] = system: SCPJU = Schoenoplectus juncoides (Japanese bulrush); assay: as above; conditions: 35 g ae/ha (as headed) in-water
Text: as §4, §5, §6

[11] = 280 g ae/ha in-water, greenhouse large pots, 31 DAA
[12] = 560 g ae/ha in-water, greenhouse large pots, 31 DAA
[13] = 1120 g ae/ha in-water, greenhouse large pots, 31 DAA
[14] = application rates of less than or equal to 280 g ae/ha
[15] = 35 g ai/ha in-water, greenhouse large pots, 31 DAA

SMILES	pest or weed control at 280 g/ha [1, 11]	pest or weed control at 1120 g/ha [1, 13]	pest or weed control at 280 g/ha [2, 11]	pest or weed control at 560 g/ha [2, 12]	pest or weed control at 1120 g/ha [2, 13]	pest or weed control at 280 g/ha [3, 11]	pest or weed control at 1120 g/ha [3, 13]	efficacy on several commercially relevant weeds [4]	crop safety exhibited by rice [5, 14]	other results
CCCCC(CC)COC(=O)COc1ccc(Cl)cc1Cl (stereo not shown) [2,4-D 2-ethylhexyl ester (Agri Star ®)]	100%	100%	35%	65%	87%	100%	100%	–	–	pest or weed control at 560 g/ha [1, 12]: 100%; pest or weed control at 560 g/ha [3, 12]: 100%
O=C(O)COc1ccc(Cl)cc1Cl [2,4-D, (2,4-dichlorophenoxy)acetic acid]	–	–	–	–	–	–	–	highly efficacious	little to no crop injury	–
O=C(O)c1nc(Cl)ccc1Cl [Clopyralid olamine (Stinger ®), 2-hydroxyethanaminium 3,6-dichloro-2-pyridinecarboxylate]	–	–	–	–	–	–	–	–	–	pest or weed control at 280 g/ha [1]: 7%; pest or weed control at 560 g/ha [1]: 53%; pest or weed control at 1120 g/ha [1]: 59%; pest or weed control at 280 g/ha [2]: 17%; pest or weed control at 560 g/ha [2]: 4%; pest or weed control at 1120 g/ha [2]: 5%; pest or weed control at 280 g/ha [3]: 10%; pest or weed control at 560 g/ha [3]: 18%; pest or weed control at 1120 g/ha [3]: 23%; Percent (%) Visual Injury Ratings - 31 DAA, ORYSP ([6]; 280 g ae/ha in-water): 0%; Percent (%) Visual Injury Ratings - 31 DAA, ORYSP ([6]; 560 g ae/ha in-water): 0%; Percent (%) Visual Injury Ratings - 31 DAA, ORYSP ([6]; 1120 g ae/ha in-water): 0%
Nc1c(Cl)c(F)nc(OCC(=O)O)c1Cl [Fluroxypyr acid, 2-[(4-amino-3,5-dichloro-6-fluoro-2-pyridinyl)oxy]-acetic acid]	100%	100%	27%	28%	45%	98%	100%	highly efficacious	–	crop safety exhibited by rice ([5]; in vivo): little to no crop injury
COc1cnc(OC)n2nc(NS(=O)(=O)c3c(OCC(F)F)cccc3C(F)(F)F)nc12 [Penoxsulam (Grasp ® SC), penoxsulam]	–	–	–	–	–	–	–	–	–	Percent (%) Visual Injury Ratings - 20 DAA, CYDPI [7]: 100%; Percent (%) Visual Injury Ratings - 20 DAA, ECHCG [8]: 99%; Percent (%) Visual Injury Ratings - 20 DAA, MOOVA [9]: 99%; Percent (%) Visual Injury Ratings - 20 DAA, SCPJU [10]: 100%; pest or weed control at 35 g/ha [1, 15]: 99%; pest or weed control at 35 g/ha [2, 15]: 100%; pest or weed control at 35 g/ha [3, 15]: 100%
CCCCOCCOC(=O)COc1nc(Cl)c(Cl)cc1Cl [Triclopyr butoxyethyl ester (Garlon ® 4), 2-butoxyethyl 2[(3,5,6-trichloro-2-pyridinyl)oxy]acetate]	100%	100%	60%	78%	95%	100%	100%	–	–	pest or weed control at 560 g/ha [1, 12]: 100%; pest or weed control at 560 g/ha [3, 12]: 100%; Percent (%) Visual Injury Ratings - 31 DAA, ORYSP ([6]; 280 g ae/ha in-water): 3%; Percent (%) Visual Injury Ratings - 31 DAA, ORYSP ([6]; 560 g ae/ha in-water): 22%; Percent (%) Visual Injury Ratings - 31 DAA, ORYSP ([6]; 1120 g ae/ha in-water): 72%
O=C(O)c1nc(Cl)ccc1Cl [clopyralid, 3,6-dichloro-2-pyridinecarboxylic acid]	–	–	–	–	–	–	–	highly efficacious	little to no crop injury	–
O=C(O)COc1nc(Cl)c(Cl)cc1Cl [triclopyr, 2-[(3,5,6-trichloro-2-pyridinyl)oxy]acetic acid]	–	–	–	–	–	–	–	highly efficacious	little to no crop injury	–
